Assay results reported in US6589564B2, “Use of magnesium based products for the treatment of neoplastic diseases” (priority 1994, dated 2003).
Like-named read-outs stand apart in the source and are kept apart here.

Legend:
ulcerative colitis = system: ulcerative colitis
Method: The treatment comprised the parenteral administration of 6 g of magnesium pyrophosphate (489 mg of Mg^++, i.e., 8.89 mg of Mg^++/kg body weight daily), diluted into 500 cm^3 of physiologic solution, and the infusion was adjusted to supply the patient with 80 mg of Mg^++ per hour for 6 hours. […] of orally administered vitamin B6 were added in divided doses, to improve the magnesium uptake.

[1] = system: infiltrating ulcerated adenocarcinoma (rectum)
Method: The patient refused any therapy for a month and then started a magnesium treatment consisting of a daily administration of 500 cm^3 of physiologic solution, containing 6 g of magnesium pyrophosphate (i.e., 489 mg of Mg^++ daily, that is equivalent to about 9.7 mg of Mg^++/kg body weight daily). The infusion rate was adjusted to supply the patient with 80 mg of magnesium ions per hour for about 6 hours. Furthermore, a daily amount of 1200 mg of vitamin B6 was associated (vitamin B6:Mg^++=2.5:1), in four separate administrations.
After one month of intravenous treatment, the therapy was continued orally, with 6 g of magnesium pyrophosphate daily (i.e., 488 mg of Mg^++ daily, corresponding to 9.7 mg of Mg^++/kg body weight daily), associated with […] of vitamin B6 in divided doses.

pemphigus vulgaris = system: pemphigus vulgaris
Method: A patient was affected since three years by a pemphigus vulgaris, that caused soft vesicles to form on the patient's face and scalp. The vesicles broke after forming, and gave rise to circular erosions, that later were covered by scabs. Then, the said lesions appeared also on the patient's trunk and oral mucosa.
The therapy consisted in daily administering 9 g of magnesium pyrophosphate (i.e., 733 mg of Mg^++, corresponding to 9.16 mg/kg body weight daily of magnesium ions), dissolved into 500 cm^3 of a physiologic solution. The infusion rate was adjusted to supply 80 mg of Mg^++ per hour for about 9 hours.
Moreover, 1800 mg of vitamin B6 were administered daily, in divided doses.

rheumatoid arthritis = conditions: for ESR: before therapy 55, normal range 1-15
Method: The magnesium therapy, that the patient started in a disease remission interval, consisted of daily administations of 6 g of magnesium pyrophosphate (equivalent to 489 mg of Mg^++, corresponding to 8.1 mg of Mg^++/kg body weight daily), by infusion in 500 cm^3 of physiologic solution. The infusion rate was adjusted to supply 80 mg of Mg^++ per hour for about 6 hours. Vitamin B6 was associated with magnesium in the 2.5:1 ratio, i.e. in an amount of 1200 mg daily in divided doses, in order to improve the magnesium uptake. Suitable analgesic and anti-inflammatory drugs (FANS) were prescribed to soothe the articulation pains
At this point the parenteral treatment was suspended and an oral therapy started with following dosage: 6 g of magnesium pyrophosphate daily in divided doses (i.e., 488 mg of Mg^++ daily, corresponding to 8.1 mg of Mg^++/kg body weight daily), as well as […] of vitamin B6 orally, also in divided doses.

[2] = after one further month (three months)
[3] = end of fourth month, negative normally, before therapy positive

## O=P([O-])([O-])OP(=O)([O-])[O-].[Mg+2].[Mg+2] [magnesium pyrophosphate]
Ulcerative colitis; [2]
  colonscopy, last 50 cm of the colon mucosa: appeared normal
  histology test of colon mucosa and submucosa: colon mucosa and submucosa were normal and any inflammatory infiltration had disappeared
Ulcerative colitis; after one further month (three months), same dosage
  abdominal pains and diarrhoea: no more abdominal pains nor diarrhoea
Ulcerative colitis; end of two month treatment
  colonscopy, last 50 cm of the colon mucosa: neither hyperaemic nor bleeding; and absence of microulcerative lesions
  diarrhoea, daily episodes: two
  histology test of colon mucosa: still showed the presence of inflammatory neutrophil infiltration in the colon mucosa
Ulcerative colitis; end of two month treatment, 6 g/day parenteral with oral vitamin B6
  abdominal pains: no abdominal pains
[1]; end of fifth month of treatment
  tumor area at rectoscopy and tomography: totally disappeared
[1]; end of fourth month of therapy
  tumor area: further reduced
[1]; end of third month of magnesium therapy, point at 3 o'clock
  diameter of residual tumor area: 1.5 cm
[1]; end of third month, 6 g/day, 1 month i.v. then oral, with vitamin B6 1200 mg/day
  tumoral tissue at rectum investigation and rectoscopy: had disappeared from the whole rectum circumference, except from a point at 3 o'clock
Pemphigus vulgaris; after one month, 9 g/day by infusion with vitamin B6
  articular pains and cutaneous lesions: less articular pains and cutaneous lesions onto non-erythematous skin
Pemphigus vulgaris; end of fourth month (1 month i.v., then oral 9 g/day with vitamin B6)
  scab lesions and articulation pains: the trunk and limb scab lesions had disappeared, while scarce lesions were still present on the scalp
Pemphigus vulgaris; end of sixth month of treatment
  articulation pains and skin lesions: the articulation pains had disappeared at all, as well as any skin lesions
Rheumatoid arthritis; end of first month, 6 g/day by infusion with vitamin B6
  ESR: 42
Rheumatoid arthritis; end of first month, 6 g/day by infusion with vitamin B6 and FANS
  articulation pains and swelling: less pains at affected articulations, which appeared less swollen
Rheumatoid arthritis; end of fourth month of treatment (1 month i.v., then oral 6 g/day)
  articulation tumescence, pains, morning rigidity: any articulation tumescence had disappeared and the patient referred neither articulation pains nor morning articulation rigidity
Rheumatoid arthritis; [3]
  ANA antibody research: negative
  Waaler-Rose's reaction: negative
Rheumatoid arthritis; end of fourth month, normal range 0-6, before therapy 15
  reactive C protein: 2
Rheumatoid arthritis; end of fourth month, normal range 0-40, before therapy 105
  rheuma test: 21
Rheumatoid arthritis; end of fourth month
  ESR: 10
Rheumatoid arthritis; end of fourth month, normal range 123-370, before therapy 550
  fibrinogen: 232
